Measured values published in patent US20090143293A1, “Peptide inhibitors of protein kinase C gamma for pain management” (priority 2002, published 2009).
Entries after “also recorded” stand apart in the source; their conditions may differ. Where two headings read alike, the source gives them in different places.

What was measured:
[1] = test system: formalin-induced spontaneous pain behaviors; assay: Formalin-induced nociception in rat pups, peptide given before formalin (Example 1); format: in vivo, rat (Sprague-Dawley pups)
Experimental: In the study detailed in Example 1, the peptide identified herein as SEQ ID NO:4 was administered to rat pups on postnatal days 7, 15, and 21. The peptide was administered 15 minutes prior to intraplantar formalin injection. Following formalin injection, spontaneous pain behaviors were recorded every two minutes for one hour. In this study, an εPKC antagonist peptide from the V1 domain was used as a positive, comparative control. As noted above, the εV1-2 peptide, EVASLKPT (SEQ ID NO:6) has been described, for example, in U.S. Pat. No. 5,783,405 and by Dorn et al. (PNAS, […]:12798 (1999)).
Both the εV1-2 peptide and the γPKC peptide V5-3 (SEQ ID NO:4) were conjugated via terminal cysteine residues to a carrier peptide, Tat (SEQ ID NO:7), for administration. One group of animals was treated with the Tat carrier peptide alone as a control. Another group of animals received only saline as a control.
The results are shown in FIGS. 2A-2C, where average pain scores for rat pups treated with γPKC (closed squares), εPCK (open squares), the Tat carrier peptide alone (open triangles), or saline (open circles) are shown as a function of time, in minutes. The average pain score was determined by a time sampling method, where the animal's behavior was recorded every two minutes. A score of “1” was given if the animal was licking, shaking, or elevating the formalin-treated paw. The three pain scores over a six minute period of observation were summed into a single score, to give a maximum possible score of 3 for each animal for each six minute interval. The average pain score was determined from the individual scores of the animals in each treatment group. FIG. 2A corresponds to the average pain scores for 7 day old rat pups, where 1% formalin was administered to the paw 15 minutes post delivery of the peptide or control substance.
Rat pups (male and female, Sprague-Dawley) were randomly divided at selected days after birth (postnatal days 7, 15, and 21) into groups for treatments. Each group received a PKC V5-domain test peptide, a positive, comparative control peptide, a carrier peptide control, or a saline control. The V5-domain test peptide was a γPKC peptide identified herein as SEQ ID NO:4 and as the comparative control peptide was a V1 domain εPKC peptide identified herein as SEQ ID NO:6. Peptides were reversibly conjugated to a Tat-peptide carrier (SEQ ID NO:7) via a cysteine-cysteine bond at their N termini. The peptides were administered via direct lumbar puncture (intrathecal administration) at the indicated dose, typically a dose of 20 μM PKC peptide in 5 μL (7 day old pups) or 10 μL (15 and 21 day old pups) saline.
Fifteen minutes after administration of the peptides or the control substance, 1% formalin (7 day old pups) or 2.5% formalin (15 and 21 day old pups) was delivered intradermally to the paw. Spontaneous pain behaviors were recorded every two minutes for one hour following formalin injection. The time sampling method for behavioral observation was employed, in which the observer rapidly recorded the behavior of the animals every two minutes (Teng et al., Pain, 76:337 (1998). A score of “1” was given if the animal was licking, shaking, or elevating the hindpaw. A six minute period of observation provided a maximum pain score of “3” for each animal.

[2] = test system: capsaicin-induced nociception; assay: Capsaicin-induced nociception, paw withdrawal latency (Example 2); format: in vivo, rat (adult male Sprague-Dawley); conditions: 10 μM Tat-conjugated peptide intrathecal 15 min before 3% capsaicin, FIG. 3; for response to nociception (paw withdrawal latency): low rate heating
Experimental: Example 2 describes another study in support of the invention, where a γPKC V5 domain peptide (SEQ ID NO:4) was used for pain management in the capsaicin pain model. As a positive, comparative control, a V1 εPKC peptide (SEQ ID NO:6) was used. The peptides were conjugated to a Tat carrier peptide (SEQ ID NO:7) and were administered intrathecally to test animals prior to application of capsaicin to a paw. […] minutes after capsaicin application, paw withdrawal latency was measured at regular intervals for 75 minutes. The results are shown in FIG. 3, for Tat-derived γPCK (closed squares), Tat-derived-εPCK (open squares), the Tat carrier peptide alone (open triangles), and for animals treated with saline (open circles).
Adult male Sprague-Dawley rats weighing between 200-250 g were lightly anaesthetized with urethane (800 mg/kg, i.p.). The dorsal surface of each animal was painted with India ink to ensure heat was applied evenly to the dorsal surface. Baseline measurements of all animals (n=10/test group) were taken for 45 minutes for both C-fibers (0.9° C./sec heating rate) and Aδ-fibers (6.5° C./sec heating rate). The test V5 peptide was derived from the V5 region of γPKC (SEQ ID NO:4) and was conjugated to a Tat-carrier peptide (SEQ ID NO:7). As a positive comparative control, a peptide from the V1 domain of εPKC (SEQ ID NO:6) was also conjugated to a Tat-carrier peptide (SEQ ID NO:7). The peptides were delivered intrathecally via direct lumbar puncture (10 μM peptide in 20 μL saline) 15 minutes prior to topical application of capsaicin to the left hind paw (100 μL of 3% capsaicin). Saline and the Tat-carrier peptide alone (SEQ ID NO:7) were also administered to two separate groups of control animals. A latency measurement was taken post peptide but prior to capsaicin application to control for direct peptide effect. Twenty minutes after the application of capsaicin, the ink was re-applied, and the dorsal surface of the hind paws was subjected to low rate heating for a maximum of 20 seconds. Foot withdrawal latencies were measured at 15 minute intervals.

[3] = test system: formalin-induced spontaneous pain behaviors; assay: Dose response study in the formalin-induced pain model, rats at postnatal days 7, 15, 21; format: in vivo, rat
Excerpt: In postnatal day 21 and older rats, intraplantar formalin produces a stereotypic biphasic behavioral pattern. Phase 1 is characterized by intense shaking, lifting and licking of the offending hindpaw produced by activation of peripheral nociceptors. Activation of descending inhibitory pathways follows, reducing spontaneous pain behaviors (quiescent phase). Quiescence is followed by a second phase, characterized by a revival of pain behaviors, and at least partially mediated by central mechanisms.
A dose response study on rats at postnatal days 7, 15, and 21 using the γPCK V5 peptide identified herein by SEQ ID NO:4. In this study, the average pain scores as a function of time were determined, as described above, using the formalin-induced pain model. The peptide was administered at dosages of 2 μM, 10 μM and 20 μM fifteen minutes […] formalin injection. The results are shown in FIGS. 4A-4C for rats at postnatal day 7 (FIG. 4A), postnatal day 15 (FIG. 4B) and postnatal day 21 (FIG. 4C), where the 2 μM γPKC dose is represented by inverted triangles, the 10 μM dose of γPKC is represented by diamonds, and the 20 μM γPKC dose by circles. The control groups received 10 μM of the Tat carrier peptide and are represented by triangles.

[4] = test system: allodynia and/or hyperalgesia; conditions: formalin model; cited from earlier work
[5] = test system: allodynia and/or hyperalgesia; conditions: capsaicin model; cited from earlier work
[6] = test system: allodynia and/or hyperalgesia; conditions: neuropathy model; cited from earlier work
pain = conditions: reported in WO 00/01415; listed as εV1-2 peptide; cited from earlier work
εPKC = biological target: T1, εPKC (Homo sapiens, UniProt Q02156); conditions: reported in the literature; listed as εV1-2 peptide; cited from earlier work
T1 sequence (Q02156 1-737): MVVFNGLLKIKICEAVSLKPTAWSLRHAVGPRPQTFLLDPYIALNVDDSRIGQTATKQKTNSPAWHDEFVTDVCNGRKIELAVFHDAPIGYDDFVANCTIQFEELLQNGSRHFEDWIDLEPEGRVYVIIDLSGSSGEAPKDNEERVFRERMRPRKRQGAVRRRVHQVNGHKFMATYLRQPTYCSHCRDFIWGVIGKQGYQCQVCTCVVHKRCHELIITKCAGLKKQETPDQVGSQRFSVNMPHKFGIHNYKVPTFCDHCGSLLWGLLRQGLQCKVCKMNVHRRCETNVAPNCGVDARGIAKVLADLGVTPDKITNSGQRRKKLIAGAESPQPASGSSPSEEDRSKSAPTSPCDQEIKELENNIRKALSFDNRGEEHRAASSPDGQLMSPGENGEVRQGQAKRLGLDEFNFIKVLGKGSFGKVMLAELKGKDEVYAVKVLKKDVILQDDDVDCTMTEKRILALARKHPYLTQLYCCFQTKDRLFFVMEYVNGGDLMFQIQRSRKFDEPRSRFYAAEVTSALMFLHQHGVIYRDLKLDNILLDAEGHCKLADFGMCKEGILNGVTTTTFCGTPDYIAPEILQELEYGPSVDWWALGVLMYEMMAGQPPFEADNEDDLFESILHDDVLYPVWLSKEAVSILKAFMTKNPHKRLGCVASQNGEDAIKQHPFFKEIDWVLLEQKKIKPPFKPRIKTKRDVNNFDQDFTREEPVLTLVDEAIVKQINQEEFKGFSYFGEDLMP

[7] = 7 day old rat pups, 1% formalin to paw 15 min after intrathecal Tat-conjugated peptide, FIG. 2A
[8] = 15 day old rat pups, 2.5% formalin 15 min after intrathecal Tat-conjugated peptide, FIG. 2B
[9] = 21 day old rat pups, 2.5% formalin 15 min after intrathecal Tat-conjugated peptide, FIG. 2C
[10] = 2, 10, 20 μM, postnatal days 7, 15, 21, FIGS. 4A-4C

RLVLAS (peptide derived from the V5 domain of the gamma isozyme of PKC) [SEQ ID NO:4, peptide derived from the V5 domain of the γ isozyme of PKC]
average pain score relative to control pups [1, 7]: effective to lessen pain | average pain score relative to control pups [1, 8]: effective to alleviate pain | average pain score relative to control pups [1, 9]: provided a reduction in pain | duration of formalin-induced pain ([1]; summary of FIGS. 2A-2C): effectively shortened the duration | formalin-induced spontaneous pain behaviors ([1]; summary of FIGS. 2A-2C, postnatal days 7, 15, 21): attenuated formalin-induced spontaneous pain behaviors | response to nociception (paw withdrawal latency) [2]: induced an analgesic effect, producing an increase of threshold in the initial time point | response to nociception (paw withdrawal latency) ([2]; listed as γPKC V5 domain peptide): effective to modulate the response to nociception | phase 1 of formalin-induced spontaneous pain behaviors [3, 10]: but not phase 1 | phase 2 of formalin-induced spontaneous pain behaviors [3, 10]: attenuated phase 2 | attenuation of phase 2 behaviors ([3]; 7 day old rats, highest dose (20 μM)): mild anti-nociception | duration of phase 2 behaviors ([3]; 15 day old rats): shortened the duration of phase 2 behaviors | duration of phase 2 behaviors ([3]; 21 day old rats): shortened the duration of phase 2 behaviors | attenuation of phase 2 behaviors ([3]; 21 day old rats, all three doses (2, 10, 20 μM)): more robust anti-nociception

COc1ccc2c(c[n+](C)c3c4cc5c(cc4ccc23)OCO5)c1OC [chelerythrine]
allodynia and/or hyperalgesia induced by the inflammatory agents [4]: reversal of the allodynia and/or hyperalgesia

CCCCCCCCCCCCC(=O)N1CCCCC1CNC(=O)C(N)CCCCN (centres unmarked) [NPC15437]
allodynia and/or hyperalgesia induced by the inflammatory agents [5]: reversal of the allodynia and/or hyperalgesia

calphostin
allodynia and/or hyperalgesia induced by the inflammatory agents [6]: reversal of the allodynia and/or hyperalgesia

EVASLKPT [SEQ ID NO:6, peptide derived from the V1 domain of εPKC, positive comparative control, reference compound]
average pain score relative to control pups [1, 7]: provided a greater attenuation of formalin-induced nociception | average pain score relative to control pups [1, 8]: contribute to nociception relief | average pain score relative to control pups [1, 9]: contribute to nociception relief | reducing the paw withdrawal latency [2]: about 50% | response to nociception (paw withdrawal latency) [2]: anti-hyperalgesic | pain (pain): reported to lessen pain; also recorded: ameliorate pain | selective inhibition of εPKC (εPKC): selective inhibitor of εPKC; also recorded: selectively inhibit PCKε action
